Data from patent US5834431A, “Des-Arg^9 -BK antagonists” (Cortech, Inc., priority 1995, dated 1998).
Each block holds one compound with its values, some of them ahead of it. Square brackets hold non-standard residues; d marks the D form. Peptide text beside a SMILES is read from it. Oic = O=C(O)[C@@H]1C[C@@H]2CCCC[C@@H]2N1; dIgl = N[C@@H](C(=O)O)C1Cc2ccccc2C1; Gly(cPent) = N[C@H](C(=O)O)C1CCCC1; Igl = N[C@H](C(=O)O)C1Cc2ccccc2C1; Hyp = O=C(O)[C@@H]1C[C@@H](O)CN1; dTic = O=C(O)[C@H]1Cc2ccccc2CN1

How the values were obtained:
[1] = Stability in rat lung membranes; format: in vitro ADME
Method: Rat or human lung (3 gm) was prepared as a modification of […] et al. (Biochemical Pharmacology 33: 3471 (1984)). Tissues were removed and placed in cold phosphate-saline (3×). Material was minced and homogenized in 20 volumes (w/v) of 0.5 mM tris HCl. 50 mM mannitol, pH 7.0. Calcium chloride was added to the homogenate to give a final concentration of 10 mM. The material was filtered through a guaze pad to remove loose connective tissue. Filtrate was spun in a Beckman centrifuge (3,000×g) for thirty minutes. The resultant supernatant fraction was spun in a Beckman L7-65 ultracentrifuge (43,000×g, 30 min) to spin down membranes. The centrifugation step was repeated on the membrane pellet fraction two additional times. The pellet was reconstituted in 4 ml of the tris mannitol buffer and stored at -70° C. Protein was determined by the method of Bradford. Bradykinin antagonists were prepared at 1 mM concentration in a phosphate-buffered saline solution (phosphate saline, 2.6 mM KH2 PO4, 10.42 mM Na2 HPO4, 0.1454M NaCl, pH. 7.2). Aliquots (10 μl) of the compound were added to 90 μl of the tissue samples in Eppendorf tubes. Samples were incubated various time points at 37° C. At each time point protein was precipitated by addition of acetonitrile, acetonitrile made 0.1M HCl or 10% (v/v) trifluoroacetic acid in water (100 μl). Tubes were spun (14,000 rpm, 10 min) in an Eppendorf Model 5415C microcentrifuge. Samples were filtered and analyzed using reverse-phase HPLC (C18 column 4.6×150 mm) and a 13.5% to 90% acetonitrile gradient in 0.1% TFA. Compound half-life was determined by analysis of raw data using ENZFIT application software (Elsevier).

B1 receptor = target: T1, B1 receptor (Homo sapiens, UniProt P46663); experiment: Human B1 binding, IL-1b-treated IMR-90 membranes, 3H-des-Arg9-Kallidin; settings: 0.5 nM 3H-des-Arg9-Kallidin, pIC50 = -log of molar IC50
T1 construct: Human lung fibroblasts IMR-90 cells were obtained from ATCC and propagated in DMEM media; host or cells: IMR-90 human lung fibroblasts, treated with interleukin 1b three hours before harvest; membranes
T1 sequence (P46663 1-353): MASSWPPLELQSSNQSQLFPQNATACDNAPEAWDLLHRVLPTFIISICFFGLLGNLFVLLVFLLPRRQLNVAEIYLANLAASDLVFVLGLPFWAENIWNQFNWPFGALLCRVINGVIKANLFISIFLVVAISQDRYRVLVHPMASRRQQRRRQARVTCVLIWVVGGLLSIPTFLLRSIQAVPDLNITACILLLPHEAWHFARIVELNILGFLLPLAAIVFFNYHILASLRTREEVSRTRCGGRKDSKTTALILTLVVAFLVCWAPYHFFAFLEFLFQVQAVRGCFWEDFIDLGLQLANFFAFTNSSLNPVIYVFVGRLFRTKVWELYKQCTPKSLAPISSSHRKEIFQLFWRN
Method: (§1) Human lung fibroblasts IMR-90 cells were obtained from ATCC and propagated in DMEM media in […] roller bottles until confluent. Three hours prior to harvesting, the cells were treated with Interleukin lb (200 pg/ml). Human BK2 clones were propagated in F12 media until confluent. Preparation of membranes for binding assays was carried out by scraping cells from roller bottles in ice cold PBS and centrifuging at 1000 ×g, at 4° C. for 15 minutes. The supernatant was discarded and pellet resuspended in Buffer A consisting of 25 mM TES(pH 6.8) with 2 uM 1,10-Phenanthroline, and centrifuged at 27,000 ×g for 15 min. this was then repeated. The final pellet was resuspended in Buffer B (Buffer A with 2 uM Captopril, 140 ug/Ml Bacitracin, 0.1%BSA), and stored in 1 ml aliquots, frozen at -20° C. until needed.
(§2) Binding assays were performed by incubating human clone membranes with 0.3 nM ^3 H-Bradykinin or IMR-90 membranes with 0.5 nM ^3 H-des-Arg^9 -Kallidin in the presence of the peptides in assay buffer (Buffer B with 1 mM Dithiotreitol), at room temperature, for 45 minutes. All test compound dilutions were in triplicate. Assays were harvested by quick filtration in a Tomtec Harvester 96, with ice cold wash buffer consisting of 10 mM Tris/HCl, pH 7.5, 100 mM NaCl, 0.02%BSA, onto Wallec printed glassfiber Filtermat "B", which had been pre-soaked with 0.1% PEI and previously air-dried.

[2] = Stability in rat kidney brush border microvilli; format: in vitro ADME
Method: Kidney membranes were prepared as indicated in the literature (Booth et al., Biochemical Journal, 142: 575 (1974)). Rat kidneys were obtained after sacrifice and rinsed in several volumes of a 2 mM tris, 10 mM mannitol buffer, pH 7.1. Cortical material was carefully removed and homogenized in ten volumes of the buffer. The homogenate was spun in a IEC Centra-8 refrigerated centrifuge. (4° C., 200×g). The supernatant was made 10 mM with respect to MgCl2. The supernatant material was subjected to further centrifugation as indicated: [drawing 2] Pellet resuspended in tris-mannitol buffer. Protein concentration was determined by the method of Bradford (Anal. Biochem., 72:248-254 (1976)). Bradykinin antagonists were prepared at 1 mM concentration in a phosphate-buffered saline solution (phosphate saline, 2.6 mM KH2 PO4, 10.42 mM Na2 HPO4, 0.1454M NaCl, pH. 7.2). Aliquots (10 μl) of the compound were added to 90 μl of the tissue samples in Eppendorf tubes. Samples were incubated various time points at 37° C. At each time point protein was precipitated by addition of acetonitrile, acetonitrile made 0.1M HCl or 10% (v/v) trifluoroacetic acid in water (100 μl). Tubes were spun (14,000 rpm, 10 min) in an Eppendorf Model 5415C microcentrifuge. Samples were filtered and analyzed using reverse-phase HPLC (C18 column 4.6×150 mm) and a 13.5% to 90% acetonitrile gradient in 0.1% TFA. Compound half-life was determined by analysis of raw data using ENZFIT application software (Elsevier).

B2 receptor [3] = target: T2, B2 receptor (Cavia porcellus, UniProt O70526); experiment: GPI binding B2; settings: i.a. = inactive, read-out: GPI Binding - pIC50 B2 (converted)
T2 construct: from tissue
T2 sequence (O70526 1-372): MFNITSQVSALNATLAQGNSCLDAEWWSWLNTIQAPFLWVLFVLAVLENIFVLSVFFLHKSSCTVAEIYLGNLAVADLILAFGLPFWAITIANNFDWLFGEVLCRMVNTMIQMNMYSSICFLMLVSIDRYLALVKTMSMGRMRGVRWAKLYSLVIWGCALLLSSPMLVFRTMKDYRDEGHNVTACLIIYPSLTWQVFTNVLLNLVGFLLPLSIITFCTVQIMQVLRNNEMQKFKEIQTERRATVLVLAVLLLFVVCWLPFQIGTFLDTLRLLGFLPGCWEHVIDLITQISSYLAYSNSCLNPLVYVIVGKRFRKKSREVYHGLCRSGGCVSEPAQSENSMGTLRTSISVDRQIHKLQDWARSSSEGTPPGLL

B2 receptor [4] = target: T3, B2 receptor (Homo sapiens, UniProt P30411); experiment: Human B2 binding, human BK2 clone membranes, 3H-Bradykinin; settings: 0.3 nM 3H-Bradykinin, i.a. = inactive, read-out: Human Binding - pIC50 B2 (converted)
T3 construct: expressed in transfected cells
T3 sequence (P30411 1-391): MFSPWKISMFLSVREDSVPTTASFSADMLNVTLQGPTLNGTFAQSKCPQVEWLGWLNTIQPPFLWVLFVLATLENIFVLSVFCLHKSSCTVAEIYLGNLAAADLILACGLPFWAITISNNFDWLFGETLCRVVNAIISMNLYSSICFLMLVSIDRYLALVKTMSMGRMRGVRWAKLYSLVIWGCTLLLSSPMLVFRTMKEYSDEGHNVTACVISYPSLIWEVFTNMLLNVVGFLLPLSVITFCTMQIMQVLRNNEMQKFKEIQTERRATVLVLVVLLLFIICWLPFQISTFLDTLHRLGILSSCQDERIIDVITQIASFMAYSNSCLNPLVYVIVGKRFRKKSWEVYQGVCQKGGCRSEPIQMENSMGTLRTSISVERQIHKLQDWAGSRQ
Method: as §1
as §2, with “air-dried. Filtermats were counted in 9.5 mls Wallec Beta-Plate Scint, in Wallec 1450 MicroBeta Counter.” for “air-dried.”

[5] = target: T4, BK1 (hypotensive response to desArg9BK) (Canis lupus familiaris, UniProt Q9BDQ5); experiment: In vivo inhibition of hypotensive response to desArg9BK in anaesthetized dogs; parameters: species or system Mongrel dogs; settings: dog
T4 construct: Mongrel dogs of either sex, weight range 10-15 kg were used; from tissue; host or cells: whole anaesthetized mongrel dog (in vivo blood pressure)
T4 sequence (Q9BDQ5 1-350): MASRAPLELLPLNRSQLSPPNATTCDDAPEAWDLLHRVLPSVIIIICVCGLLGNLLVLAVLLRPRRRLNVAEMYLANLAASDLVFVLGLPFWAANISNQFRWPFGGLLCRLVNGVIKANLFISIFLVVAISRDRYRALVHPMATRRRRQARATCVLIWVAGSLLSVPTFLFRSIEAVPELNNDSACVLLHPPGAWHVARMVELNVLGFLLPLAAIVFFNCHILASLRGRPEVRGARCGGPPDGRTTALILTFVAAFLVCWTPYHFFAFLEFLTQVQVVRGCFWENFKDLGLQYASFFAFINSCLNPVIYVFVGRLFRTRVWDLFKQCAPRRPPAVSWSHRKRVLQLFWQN
Method: Mongrel dogs of either sex, weight range 10-15 kg were used. These were anaesthesized with pentobarbitone, 30 mg/kg i.v. and catheters placed in one femoral artery and both femoral veins for the recording of blood pressure and infusion and injection of compounds. […] After the end of the infusion of the highest dose of the antagonist compound, BK and des-Arg^9 -BK were injected at intervals for up to four hours.

[6] = system: type I diabetic hyperglycemia; settings: literature, Zuccollo et al. 1995; cited from earlier work
[7] = system: angiogenic response elicited by bradykinin; settings: literature, Hu et al. 1993; cited from earlier work

Compound: N=C(N)NCCC[C@@H](N)C(=O)N[C@@H](CCCNC(=N)N)C(=O)N1CCC[C@H]1C(=O)N1C[C@H](O)C[C@H]1C(=O)NCC(=O)N[C@H](C(=O)N[C@@H](CO)C(=O)N1Cc2ccccc2C[C@@H]1C(=O)N[C@H](C(=O)O)C1CCCC1)C1CCCC1 [B9066, DArg-Arg-Pro-Hyp-Gly-Cpg-Ser-DTic-Cpg] (H-[dR]RP[Hyp]G[Gly(cPent)]S[dTic][Gly(cPent)]-OH)
Half-Life [1]: > 6 h
IC50 (B1 receptor): 0.501 nM
Half-Life [2]: > 6 h
IC50 (B2 receptor [3]): 2510 nM
IC50 (B2 receptor [4]): 1260 nM

Compound: N=C(N)NCCC[C@@H](N)C(=O)N[C@@H](CCCNC(=N)N)C(=O)N1CCC[C@H]1C(=O)N1C[C@H](O)C[C@H]1C(=O)NCC(=O)N[C@H](C(=O)N[C@@H](CO)C(=O)N[C@@H](C(=O)N1[C@H](C(=O)O)C[C@@H]2CCCC[C@@H]21)C1Cc2ccccc2C1)C1Cc2ccccc2C1 [B9812, DArg-Arg-Pro-Hyp-Gly-Igl-Ser-DIgl-Oic] (H-[dR]RP[Hyp]G[Igl]S[dIgl][Oic]-OH)
BK1 ED50 ([5]; ED50 expressed in pmol): 10.7 pmol
Duration of Action (following 20 min of highest dose) ([5]; return of agonist response after end of infusion): B1 still 100% blocked at 4.6 h
Selectivity (BK, desArg9BK, ACh, NE, Sp, AII) ([5]; which agonist responses are blocked at the stated infusion dose): B1 only at 1.0
Half-Life [1]: > 6 h
Half-Life [2]: > 6 h

BK1 ED50 ([5]; infusion, dose of antagonist to inhibit hypotensive response to desArg9BK by 50%): 0.546 ± .16 µg/kg/min
Half-Life [1]: 0.085 h
Half-Life [2]: 0.020 h
Compound: CC(C)C[C@H](NC(=O)[C@@H]1CCCN1C(=O)[C@H](CO)NC(=O)[C@H](Cc1ccccc1)NC(=O)CNC(=O)[C@@H]1CCCN1C(=O)[C@@H]1CCCN1C(=O)[C@H](CCCN=C(N)N)NC(=O)[C@@H](N)CCCCN)C(=O)O [CP-0298, desArg9 Lys0 Leu8 BX, reference compound]

Compound: [Leu^8, des-Arg^9 ]-bradykinin
effect on type I diabetic hyperglycemia [6]: cause a reduction in type I diabetic hyperglycemia
effect on angiogenic response elicited by bradykinin [7]: inhibit the angiogenic response elicited by bradykinin
